Assay results from ChEMBL document CHEMBL1149377, “8-(1-Naphthalen-2-yl-vinyl)-6,7,10-trioxaspiro (4.5) decane, a new 1,2,4-trioxane effective against rodent and simian malaria” (2006).

What was measured:
Plasmodium yoelii [1] = assay: Antimalarial activity against Plasmodium yoelii in Swiss mice (Mus musculus) model at 96 mg/kg peroral dose; type: functional; conditions: route oral
Plasmodium yoelii [2] = assay: Antimalarial activity in Plasmodium yoelii MDR infected Swiss mice (Mus musculus) at 96 mg/kg Intramuscular dose; type: functional; conditions: im
Plasmodium yoelii [3] = assay: Antimalarial activity against Plasmodium yoelii infected Swiss mice (Mus musculus) at 48 mg/kg Intramuscular dose; type: functional; conditions: im
Plasmodium yoelii [4] = assay: Antimalarial activity against Plasmodium yoelii infected Swiss mice (Mus musculus) at 24 mg/kg intramuscular dose; type: functional; conditions: im
Plasmodium yoelii [5] = assay: Antimalarial activity against Plasmodium yoelii infected Swiss mice (Mus musculus) at 48 mg/kg peroral dose; type: functional; conditions: route oral
Plasmodium cynomolgi = assay: Elimination of parasitaemia in Plasmodium cynomolgi infected Rhesus monkeys (Macaca mulatta) at 20 mg/kg intramuscular or 40 mg/kg peroral dose; type: functional, organism-based
Plasmodium yoelii [6] = assay: Antimalarial activity against Plasmodium yoelii infected Swiss mice (Mus musculus) at 72 mg/kg Intramuscular dose; type: functional; conditions: im
Plasmodium yoelii [7] = assay: Antimalarial activity against Plasmodium yoelii infected Swiss mice (Mus musculus) at 192 mg/kg peroral dose; type: functional; conditions: route oral

Row | Structure (SMILES) | inhibition in vivo at 96 mg/kg (Plasmodium yoelii [1]) | inhibition in vivo at 96 mg/kg (Plasmodium yoelii [2]) | also measured
1 | C=C(c1ccc(F)cc1)C1COC2(CCCCC2)OO1 (configuration not stated) | 14% | 89% | 
2 | C=C(c1cccc2ccccc12)C1COC2(CCCC2)OO1 (configuration not stated) | 78% | 91% | 
3 | C=C(c1ccc2c(ccc3ccccc32)c1)C1COC2(CCCC2)OO1 (configuration not stated) | 100% | 100% | 
4 | C=C(c1ccc2ccc3ccccc3c2c1)C1COC2(CCCCC2)OO1 (configuration not stated) | 99% | 13% | 
5 | C=C(c1ccc2ccccc2c1)C1COC2(CCCCC2)OO1 (configuration not stated) |  | 97% | inhibition in vivo at 48 mg/kg (Plasmodium yoelii [3]): 60%
6 | C[C@@H]1CC[C@H]2[C@@H](C)C(=O)O[C@@H]3O[C@@]4(C)CC[C@@H]1[C@]32OO4 [ARTEMISININ] |  |  | inhibition in vivo at 48 mg/kg (Plasmodium yoelii [3]): 100%; inhibition in vivo at 24 mg/kg (Plasmodium yoelii [4]): 100%
7 | CCN(CC)CCCC(C)Nc1ccnc2cc(Cl)ccc12 (configuration not stated) [CHLOROQUINE] | 100% |  | inhibition in vivo at 48 mg/kg (Plasmodium yoelii [5]): 100%
8 | C=C(c1cccc2ccccc12)C1COC2(CCCCC2)OO1 (configuration not stated) | 83% | 87% | 
9 | C=C(c1ccccc1)C1COC2(CCCC2)OO1 (configuration not stated) | 15% | 100% | 
10 | C=C(c1ccc2ccccc2c1)C1COC2(CCCC2)OO1 (configuration not stated) | 90% | 100% | clearance (Plasmodium cynomolgi): 100%; inhibition in vivo at 48 mg/kg (Plasmodium yoelii [3]): 97%; inhibition in vivo at 72 mg/kg (Plasmodium yoelii [6]): 96%; inhibition in vivo at 192 mg/kg (Plasmodium yoelii [7]): 100%
11 | C=C(c1ccc2c(c1)Cc1ccccc1-2)C1COC2(CCCCC2)OO1 (configuration not stated) | 100% | 83% | 
12 | C=C(c1ccc2c(ccc3ccccc32)c1)C1COC2(CCCCC2)OO1 (configuration not stated) | 100% | 81% | 
13 | C=C(c1ccc2ccc3ccccc3c2c1)C1COC2(CCCC2)OO1 (configuration not stated) | 64% | 99% | 
14 | C=C(c1ccc2c(c1)Cc1ccccc1-2)C1COC2(CCCC2)OO1 (configuration not stated) | 100% | 100% | 
